Test results: ChEMBL document CHEMBL2407052, “7-Substituted-sulfocoumarins are isoform-selective, potent carbonic anhydrase II inhibitors” (Bioorg Med Chem, 2013)
Activity calls are given as the source filed them. No cut-off for these calls is given here.

Legend:
Carbonic anhydrase 12 = Carbonic anhydrase 12 (Homo sapiens, UniProt O43570); experiment: Inhibition of human transmembrane carbonic anhydrase 12 after 6 hrs by stopped flow CO2 hydrase assay
Carbonic anhydrase 1 [1] = molecular target: T1, Carbonic anhydrase 1 (Homo sapiens, UniProt P00915); experiment: Inhibition of human cytosolic carbonic anhydrase 1 after 6 hrs by stopped flow CO2 hydrase assay
Target sequence in this assay (P00915 whole entry): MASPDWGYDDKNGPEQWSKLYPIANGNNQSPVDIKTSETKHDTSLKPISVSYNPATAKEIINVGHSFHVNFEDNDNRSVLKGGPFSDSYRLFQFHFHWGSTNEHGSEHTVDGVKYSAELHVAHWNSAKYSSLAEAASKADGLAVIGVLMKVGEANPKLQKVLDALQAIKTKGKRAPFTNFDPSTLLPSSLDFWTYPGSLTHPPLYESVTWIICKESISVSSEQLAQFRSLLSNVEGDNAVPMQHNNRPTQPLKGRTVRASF

Carbonic anhydrase 9 [2] = molecular target: T2, Carbonic anhydrase 9 (Homo sapiens, UniProt Q16790); experiment: Inhibition of human transmembrane carbonic anhydrase 9 up to 50 uM after 6 hrs by stopped flow CO2 hydrase assay
Carbonic anhydrase 9 [3] = molecular target: T2, Carbonic anhydrase 9; experiment: Inhibition of human transmembrane carbonic anhydrase 9 after 6 hrs by stopped flow CO2 hydrase assay
Carbonic anhydrase 1 [4] = molecular target: T1, Carbonic anhydrase 1; experiment: Inhibition of human cytosolic carbonic anhydrase 1 up to 50 uM after 6 hrs by stopped flow CO2 hydrase assay
Target sequence in this assay (P00915 2-261 limits assumed): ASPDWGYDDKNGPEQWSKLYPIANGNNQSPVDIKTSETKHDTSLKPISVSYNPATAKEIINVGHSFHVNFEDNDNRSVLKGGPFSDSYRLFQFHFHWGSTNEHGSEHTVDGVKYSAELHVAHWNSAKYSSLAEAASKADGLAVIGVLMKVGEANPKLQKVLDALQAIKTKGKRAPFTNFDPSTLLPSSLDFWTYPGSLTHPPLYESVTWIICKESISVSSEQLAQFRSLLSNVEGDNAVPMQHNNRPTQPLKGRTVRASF

Sequence of Carbonic anhydrase 12 (O43570 whole entry): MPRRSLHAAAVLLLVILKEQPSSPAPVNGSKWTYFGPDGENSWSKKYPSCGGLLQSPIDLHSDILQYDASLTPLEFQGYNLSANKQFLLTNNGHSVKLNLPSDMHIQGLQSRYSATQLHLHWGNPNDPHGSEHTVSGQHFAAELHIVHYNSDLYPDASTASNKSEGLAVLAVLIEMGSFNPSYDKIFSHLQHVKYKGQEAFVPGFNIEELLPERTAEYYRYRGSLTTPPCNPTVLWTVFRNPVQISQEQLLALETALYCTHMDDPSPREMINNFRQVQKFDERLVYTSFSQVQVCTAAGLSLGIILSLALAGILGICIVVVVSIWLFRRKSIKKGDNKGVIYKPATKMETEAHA

| SMILES | Ki (Carbonic anhydrase 12) [µM] | Ki (Carbonic anhydrase 1 [1]) [µM] | inhibition (Carbonic anhydrase 9 [2]) | Ki (Carbonic anhydrase 9 [3]) [µM] | inhibition (Carbonic anhydrase 1 [4]) |
| --- | --- | --- | --- | --- | --- |
| CS(=O)(=O)Oc1ccc2c(c1)OS(=O)(=O)C=C2 | > 10 | > 10 | inactive | > 10 | inactive |
| O=S1(=O)CC(O)c2ccc(OCc3ccccc3)cc2O1 (racemic) | > 10 | > 10 | inactive | > 10 | inactive |
| COc1ccc2c(c1)OS(=O)(=O)CC2 | > 10 | > 10 | inactive | > 10 | inactive |
| CS(=O)(=O)Oc1ccc2c(c1)OS(=O)(=O)CC2 | > 10 | > 10 | inactive | > 10 | inactive |
| O=C(Cc1ccccc1Br)Oc1ccc2c(c1)OS(=O)(=O)C=C2 | > 10 | > 10 | inactive | > 10 | inactive |
| O=S1(=O)CCc2ccc(OCc3ccccc3)cc2O1 | > 10 | > 10 | inactive | > 10 | inactive |
| O=S1(=O)C=Cc2ccc(OCc3ccccc3)cc2O1 | > 10 | > 10 | inactive | > 10 | inactive |
| O=C(Cc1ccc(Cl)cc1)Oc1ccc2c(c1)OS(=O)(=O)C=C2 | > 10 | > 10 | inactive | > 10 | inactive |
| CC(=O)Oc1ccc2c(c1)OS(=O)(=O)C=C2 | > 10 | > 10 | inactive | > 10 | inactive |
| O=S1(=O)CC(O)c2ccc(O)cc2O1 (stereo not given) | > 10 | > 10 | inactive | > 10 | inactive |
| O=S1(=O)CCc2ccc(O)cc2O1 | > 10 | > 10 | inactive | > 10 | inactive |
| COc1ccc2c(c1)OS(=O)(=O)C=C2 | > 10 | > 10 | inactive | > 10 | inactive |
| CC(=O)Oc1ccc2c(c1)OS(=O)(=O)CC2 | > 10 | > 10 | inactive | > 10 | inactive |
| O=C(Cc1ccccc1Br)Oc1ccc2c(c1)OS(=O)(=O)CC2 | > 10 | > 10 | inactive | > 10 | inactive |
| O=C(Cc1ccc(Cl)cc1)Oc1ccc2c(c1)OS(=O)(=O)CC2 | > 10 | > 10 | inactive | > 10 | inactive |
| O=S1(=O)C=Cc2ccc(O)cc2O1 | > 10 | > 10 | inactive | > 10 | inactive |
